Experimental data: patent US12532884B2, “Fungicidal compositions” (SYNGENTA CROP PROTECTION AG, priority 2020, dated 2026)
“And” between values parts separate entries of the source, which are not always exact repeats. Identical values can stand only once. Like-named read-outs stand apart in the source and are kept apart here.

Key:
[1] = test system: Corynespora cassiicola; assay: Example C5: mixtures against Corynespora cassiicola (target leaf spot), liquid culture; format: cell-based; conditions: Corynespora cassiicola, single component
Excerpt: (§1) Certain mixture compositions comprising a compound of formula (I) described above may show a synergistic effect. This occurs whenever the action of an active ingredient combination is greater than the sum of the actions of the individual components. The action to be expected E for a given active ingredient combination obeys the so-called COLBY formula and can be calculated as follows (COLBY, S. R. “Calculating synergistic and antagonistic responses of herbicide combination”. Weeds, Vol. 15, pages 20-22; 1967): • ppm=milligrams of active ingredient (=a.i.) per liter of spray mixture • X=% action by active ingredient A) using p ppm of active ingredient • Y=% action by active ingredient B) using q ppm of active ingredient.
(§2) According to COLBY, the expected (additive) action of active ingredients A)+B) using p+q ppm of active ingredient is:
(§3) If the action actually observed (O) is greater than the expected action (E), then the action of the combination is super-additive, i.e. there is a synergistic effect. In mathematical terms, synergism corresponds to a positive value for the difference of (O-E). In the case of purely complementary addition of activities (expected activity), said difference (O-E) is zero. A negative value of said difference (O-E) signals a loss of activity compared to the expected activity.
(§4) Mycelia fragments or conidia suspensions of a fungus prepared either freshly from liquid cultures of the fungus or from cryogenic storage, are directly mixed into nutrient broth. DMSO solutions of the test compound (max. 10 mg/mL) are diluted with 0.025% Tween20 by a factor of 50 and 10 μl of this solution is pipetted into a microtiter plate (96-well format). The nutrient broth containing the fungal spores/mycelia fragments is then added to give an end concentration of the tested compound. The test plates are incubated in the dark at 24° C. and 96% relative humidity. The inhibition of fungal growth is determined photometrically after 2 to 7 days, depending on the pathosystem, and percent antifungal activity relative to the untreated check is calculated.
Conidia of the fungus from cryogenic storage were directly mixed into nutrient broth (PDB potato dextrose broth). A DMSO solution of the test compounds was placed into a microtiter plate (96-well format) and the nutrient broth containing the fungal spores was added to it. The test plates were incubated at 24 C and the inhibition of growth was determined photometrically after 3-4 days at 620 nm.
(§5) The following mixture compositions at the reported concentration (in ppm) in tables C4-3 and C4-4 gave the following disease control in this test (Corynespora cassiicola). Fungicidal activity was evaluated on a 100-0 scale (100=no disease growth; 0=well completely covered by mycelium).

[2] = test system: Septoria tritici; assay: Example C2: mixtures against Septoria tritici (leaf blotch), liquid culture; format: cell-based; conditions: Zymoseptoria tritici, single component; for inhibition at 0.1 ppm: 100-0 scale (100=no disease growth)
Excerpt: as §1, §2, §3, §4
(§6) Conidia of the fungus from cryogenic storage were directly mixed into nutrient broth (PDB potato dextrose broth). A DMSO solution of the test compounds was placed into a microtiter plate (96-well format) and the nutrient broth containing the fungal spores was added to it.
The following mixture compositions at the reported concentration (in ppm) in tables C2-3 to C2-5 gave the following disease control in this test Septoria tritici (leaf blotch). Fungicidal activity was evaluated on a 100-0 scale (100=no disease growth; 0=well completely covered by mycelium).

[3] = test system: Phakopsora pachyrhizi; assay: Example D: preventative activity against Phakopsora pachyrhizi on soybean (whole plants sprayed, leaf disks inoculated); format: in vivo
Excerpt: as §1, §2, §3
Whole soybean plants are treated with the recited active ingredients 4 weeks after planting. 1 day after spraying leaf disks are cut from the first trifoliate leaf. Five repetitions at each rate are conducted. The leaf disks are inoculated with Phakopsora pachyrhizi (Asian soybean rust) one day after treatment. Evaluation of the leaf disks is conducted 11 to 14 days after inoculation and the activity is derived from the relation of the treated vs untreated, infested check. (100=no disease, no damage to the leaf, 0=high infestation, leaf damaged heavily). The rates of the active ingredients used are given in the tables as g active ingredient (a.i.)/ha.

[4] = test system: Glomerella lagenarium syn. Colletotrichum lagenarium; assay: Example C4: mixtures against Glomerella lagenarium syn. Colletotrichum lagenarium (anthracnose), liquid culture; format: cell-based; conditions: Colletotrichum orbiculare, single component
Excerpt: as §1, §2, §3, §4, §6
as §5, with “(Glomerella lagenarium syn. Colletotrichum lagenarium).” for “(Corynespora cassiicola).”

[5] = test system: Septoria glycines; assay: Example C3: mixtures against Septoria glycines (brown spot), liquid culture; format: cell-based; conditions: Septoria glycines, single component
Excerpt: This occurs whenever the action of an active ingredient combination is greater than the sum of the actions of the individual components. The action to be expected E for a given active ingredient combination obeys the so-called COLBY formula and can be calculated as follows (COLBY, S. R. “Calculating synergistic and antagonistic responses of herbicide combination”. Weeds, Vol. 15, pages 20-22; 1967): • ppm=milligrams of active ingredient (=a.i.) per liter of spray mixture • X=% action by active ingredient A) using p ppm of active ingredient • Y=% action by active ingredient B) using q ppm of active ingredient.
as §2, §3
as §4, with “The nutrient broth containing the fungal spores/mycelia fragments is then added to give an end concentration of the tested compound.” left out
as §6, with “fungus harvested” for “fungus”, “a fresh culture grown on artificial media,” for “cryogenic storage”
Fungicidal activity was evaluated on a 100-0 scale (100=no disease growth; 0=well completely covered by mycelium).

[6] = test system: Puccinia recondita (Brown rust); assay: Example B: comparative biological activity against Puccinia recondita (brown rust), curative, wheat leaf segments; format: in vivo; conditions: 8 dpi
Description: Method; Wheat leaf segments are placed on agar in multiwell plates (24-well format). The leaf segments are inoculated with a spore suspension of the fungus and sprayed with test solutions 1 day after inoculation. After appropriate incubation the activity of a compound is assessed 8 dpi (days after inoculation) as curative fungicidal activity.
The data are presented as the percentage of disease control of each compound for the biological tests and testing rates described below in table B1.

[7] = test system: Mycosphaerella arachidis syn. Cercospora arachidicola; assay: Example C1: mixtures against Mycosphaerella arachidis syn. Cercospora arachidicola (brown leaf spot), liquid culture; format: cell-based; conditions: Mycosphaerella arachidis, single component, 100-0 scale (100=no disease growth)
Excerpt: as §1, §2, §3, §4, §6
as §5, with “C1-3” for “C4-3”, “C1-4” for “C4-4”, “Mycosphaerella arachidis syn. Cercospora arachidicola (Brown leaf spot of peanut).” for “(Corynespora cassiicola).”

## CO/C=C(\Oc1cc(C2CCCCC2)ccc1C)C(=O)OC [Compound X.04, methyl (Z)-2-(5-cyclohexyl-2-methyl-phenoxy)-3-methoxy-prop-2-enoate]
[1]; 0.2 ppm
  inhibition at 0.2 ppm: 20%
[2]; 0.00625 ppm, 100-0 scale
  inhibition at 0.00625 ppm: 0%
[2]; 0.025 ppm, 100-0 scale
  inhibition at 0.025 ppm: 70%
[2]; 100-0 scale
  inhibition at 0.03 ppm: 50%
[2]
  inhibition at 0.1 ppm: 70%
[3]; Phakopsora pachyrhizi, foliar, applied alone, read-out: Observed Activity (% of untreated)
  inhibition at 1.13 g/ha: 20%
[3]; Phakopsora pachyrhizi, foliar, applied alone, 18 g/ha, read-out: Observed Activity (% of untreated)
  inhibition at 18 g/ha: 74%
[3]; applied alone, 2.25 g/ha
  Observed Activity (% of untreated): 22% and 35% and 17%
[3]; applied alone, 4.5 g/ha
  Observed Activity (% of untreated): 67% and 34% and 49% and 53%
[3]; applied alone, 9 g/ha
  Observed Activity (% of untreated): 81% and 59%
[4]
  inhibition at 0.03 ppm: 0%
[5]; 0.00625 ppm
  inhibition at 0.00625 ppm: 0%
[5]; 0.025 ppm
  inhibition at 0.025 ppm: 90%
[5]
  inhibition at 0.03 ppm: 70%
[6]; 20 ppm
  control (%): 90%
[6]; 60 ppm
  control (%): 100%
[6]; 200 ppm
  control (%): 100%
[7]; 0.00625 ppm
  inhibition at 0.00625 ppm: 0%

## CO/C=C(\Oc1cc(C2CCCC2)ccc1C)C(=O)OC [Compound X.02, methyl (Z)-2-(5-cyclopentyl-2-methyl-phenoxy)-3-methoxy-prop-2-enoate]
[1]; 1 ppm
  inhibition at 1 ppm: 20%
[2]; 100-0 scale
  inhibition at 0.03 ppm: 0%
[2]; 0.03125 ppm, 100-0 scale
  inhibition at 0.03125 ppm: 20%
[2]; 0.0625 ppm, 100-0 scale
  inhibition at 0.0625 ppm: 90%
[2]
  inhibition at 0.1 ppm: 70%
[3]; Phakopsora pachyrhizi, foliar, applied alone, 2.25 g/ha, read-out: Observed Activity (% of untreated)
  inhibition at 2.25 g/ha: 13%
[3]; Phakopsora pachyrhizi, foliar, applied alone, 4.5 g/ha, read-out: Observed Activity (% of untreated)
  inhibition at 4.5 g/ha: 20%
[3]; Phakopsora pachyrhizi, foliar, single active ingredient, soybean, preventative, 100=no disease, read-out: Observed Activity (%)
  inhibition at 1.13 g/ha: 1%
[3]; Phakopsora pachyrhizi, foliar, single active ingredient, 2.25 g/ha, read-out: Observed Activity (%)
  inhibition at 2.25 g/ha: 14%
[3]; Phakopsora pachyrhizi, foliar, single active ingredient, 2.25 g/ha, soybean, preventative, 100=no disease, read-out: Observed Activity (%)
  inhibition at 2.25 g/ha: 23%
[3]; Phakopsora pachyrhizi, foliar, single active ingredient, 4.5 g/ha, read-out: Observed Activity (%)
  inhibition at 4.5 g/ha: 22%
[3]; Phakopsora pachyrhizi, foliar, single active ingredient, 4.5 g/ha, soybean, preventative, 100=no disease, read-out: Observed Activity (%)
  inhibition at 4.5 g/ha: 33%
[3]; Phakopsora pachyrhizi, foliar, single active ingredient, 9 g/ha, read-out: Observed Activity (%)
  inhibition at 9 g/ha: 38%
[4]
  inhibition at 0.03 ppm: 0%
[4]; 0.1 ppm
  inhibition at 0.1 ppm: 20%
[5]; 100-0 scale (100=no disease growth)
  inhibition at 0.03 ppm: 50%
[5]; 0.03125 ppm
  inhibition at 0.03125 ppm: 70%
[5]; 0.1 ppm, 100-0 scale (100=no disease growth), read-out: Activity (%)
  inhibition at 0.1 ppm: 70%
[6]; 20 ppm
  control (%): 0%
[6]; 60 ppm
  control (%): 0%
[6]; 200 ppm
  control (%): 100%
[7]; 0.03 ppm
  inhibition at 0.03 ppm: 50%
[7]; 0.03125 ppm
  inhibition at 0.03125 ppm: 70%
